According to publication PMC9775322, “An Integrated Analysis of Mechanistic Insights into Biomolecular Interactions and Molecular Dynamics of Bio-Inspired Cu(II) and Zn(II) Complexes towards DNA/BSA/SARS-CoV-2 3CL^pro by Molecular Docking-Based Virtual Screening and FRET Detection” (Biomolecules, 2022):

Columns and labels:
Mucor indicus = test: Agar disc diffusion antifungal test; conditions: for Inhibition %: J, (T–C)/T × 100; for zone of inhibition at 100 µM: read-out: diameter of clear zone inhibition
Aspergillus niger = test: Agar disc diffusion antifungal test; conditions: for Inhibition %: H, (T–C)/T × 100; for zone of inhibition at 100 µM: read-out: diameter of clear zone inhibition
Candida albicans = test: Agar disc diffusion antifungal test; conditions: for Inhibition %: I, (T–C)/T × 100; for zone of inhibition at 100 µM: read-out: diameter of clear zone inhibition
Pseudomonas aeruginosa = test: Agar disc diffusion antibacterial test; conditions: for Inhibition %: D, (-) Pseudomonas aeruginosa, (T–C)/T × 100; for zone of inhibition at 100 µM: Pseudomonas aeruginosa, read-out: diameter of clear zone inhibition
[1] = test system: Chromo bacterium violaceum; test: Agar disc diffusion antibacterial test; conditions: for Inhibition %: C, (-) Chromo bacterium violaceum, (T–C)/T × 100; for zone of inhibition at 100 µM: read-out: diameter of clear zone inhibition
Escherichia coli = test: Agar disc diffusion antibacterial test; conditions: for Inhibition %: A, (-) Escherichia coli, (T–C)/T × 100; for zone of inhibition at 100 µM: Escherichia coli, read-out: diameter of clear zone inhibition
Shigella flexneri = test: Agar disc diffusion antibacterial test; conditions: for Inhibition %: E, (-) Shigella flexneri, (T–C)/T × 100; for zone of inhibition at 100 µM: Shigella flexneri, read-out: diameter of clear zone inhibition
Staphylococcus Aureus = test: Agar disc diffusion antibacterial test; conditions: for Inhibition %: F, (+) Staphylococcus Aureus, (T–C)/T × 100; for zone of inhibition at 100 µM: Staphylococcus aureus, read-out: diameter of clear zone inhibition
[2] = test system: Salmonella enteric serovar typhi; test: Agar disc diffusion antibacterial test; type: cell-based; conditions: B; for zone of inhibition at 100 µM: 20 µL of 100 µM on 6 mm disc, Control (DMSO) = 6 mm, read-out: diameter of clear zone inhibition; for Inhibition %: (T–C)/T × 100
Bacillus cereus = test: Agar disc diffusion antibacterial test; conditions: for zone of inhibition at 100 µM: Bacillus cereus, read-out: diameter of clear zone inhibition; for Inhibition %: G, (+) Bacillus cereus, (T–C)/T × 100
[3] = Hydroxyl radical scavenging assay; type: biochemical; conditions: 230 nm
[4] = Nitric oxide scavenging assay; type: biochemical; conditions: 546 nm
[5] = DPPH radical scavenging assay; type: biochemical; conditions: 517 nm
[6] = Superoxide scavenging assay; type: biochemical; conditions: 590 nm
[7] = test system: HepG2 Liver cancer cell line; test: MTT cell viability assay; type: cell-based; conditions: 72 h exposure, at least three independent experiments
[8] = test system: MCF-7 Breast cancer cell line; test: MTT cell viability assay; type: cell-based; conditions: 72 h exposure, at least three independent experiments
[9] = test system: NHDF Normal human dermal fibroblasts cell line; test: MTT cell viability assay; type: cell-based; conditions: 72 h exposure
[10] = test system: A549 Human lung cancer cell line; test: MTT cell viability assay; type: cell-based; conditions: 72 h exposure, at least three independent experiments
CT-DNA = test: DNA binding affinity by viscometric (hydrodynamic) titration; design: species or system calf; conditions: for Relative Specific Viscosity (η/η0)^1/3: DNA 100 µM; for Slope of (η/η0)^1/3 vs [Compound]/[DNA]: linear plot, R 0.2–1.0
Experimental: The hydrodynamic titrations were carried out for all substances along with ethidium bromide (control) at 20, 40, 60, 80, 100 µM concentrations. In the Ostwald viscometer, these substances were also separately treated with the deoxyribonucleic acid solution (100 µM).
2.2.4. Viscometry-based titration for investigation of DNA binding
The Viscometry-based titration measurements were further supportive and delivered data about the binding modes between test compound and DNA base pairs. Nevertheless, it does not deliver definite confirmation for the exact mode of interactions. The experiment performed for all test compounds and ethidium bromide (control) at various concentrations 20, 40, 60, 80, 100 µM and each compound mixed with the CT-DNA solution (100 µM) in the Ostwald viscometer. With an accuracy of 0.01 seconds, a digital stopwatch was used to measure the average flow time. Due to the enhancement of the DNA's overall contour length during the separation of base pairs at intercalation sites, the classical intercalative mode […]
Generally, the compounds may result in less positive/negative or no viscosity change if they bind with DNA base pairs via […]
major or minor grooves [ 26]. […]
compounds via intercalation.

## CC(=O)N1CCN(c2ccc(OCC3COC(Cn4ccnc4)(c4ccc(Cl)cc4Cl)O3)cc2)CC1 (stereo not drawn) [Ketoconazole, reference compound]
Mucor indicus
  Inhibition %: 67%
  zone of inhibition at 100 µM: 18 mm
Aspergillus niger
  Inhibition %: 63%
  zone of inhibition at 100 µM: 16 mm
Candida albicans
  Inhibition %: 67%
  zone of inhibition at 100 µM: 18 mm

## [H]/N=C(/N)N[C@H]1[C@H](O)[C@@H](O)[C@H](O[C@@H]2O[C@@H](C)[C@](O)(C=O)[C@H]2O[C@@H]2O[C@@H](CO)[C@H](O)[C@@H](O)[C@@H]2NC)[C@@H](N/C(N)=N\[H])[C@@H]1O [Streptomycin, reference compound]
Pseudomonas aeruginosa
  Inhibition %: 71%
  zone of inhibition at 100 µM: 21 mm
[1]
  Inhibition %: 75%
  zone of inhibition at 100 µM: 24 mm
Escherichia coli
  Inhibition %: 75%
  zone of inhibition at 100 µM: 24 mm
Shigella flexneri
  Inhibition %: 76%
  zone of inhibition at 100 µM: 25 mm
Staphylococcus Aureus
  Inhibition %: 71%
  zone of inhibition at 100 µM: 21 mm
[2]
  zone of inhibition at 100 µM: 26 mm
  Inhibition %: 77%
Bacillus cereus
  zone of inhibition at 100 µM: 21 mm
  Inhibition %: 71%

## O=C1O[C@H]([C@@H](O)CO)C(O)=C1O [Ascorbic acid, ascorbic acid, reference compound]
[3]; 40 µM
  % Inhibition, hydroxyl radical: 20.73%
[3]; 80 µM
  % Inhibition, hydroxyl radical: 36.46%
[3]; 120 µM
  % Inhibition, hydroxyl radical: 47.87%
[3]; 160 µM
  % Inhibition, hydroxyl radical: 59.65%
[3]; 200 µM
  % Inhibition, hydroxyl radical: 65.64%
[3]; 240 µM
  % Inhibition, hydroxyl radical: 78.83%
[3]; read-out: IC50, hydroxyl radical inhibition
  IC50: 160 µM
[4]; 40 µM
  % Inhibition, nitric oxide: 28.55%
[4]; 80 µM
  % Inhibition, nitric oxide: 35.75%
[4]; 120 µM
  % Inhibition, nitric oxide: 43.65%
[4]; 160 µM
  % Inhibition, nitric oxide: 52.68%
[4]; 200 µM
  % Inhibition, nitric oxide: 63.72%
[4]; 240 µM
  % Inhibition, nitric oxide: 72.73%
[5]; 40 µM
  % Inhibition, DPPH: 41.63%
[5]; 80 µM
  % Inhibition, DPPH: 53.74%
[5]; 120 µM
  % Inhibition, DPPH: 58.95%
[5]; 160 µM
  % Inhibition, DPPH: 70.86%
[5]; 200 µM
  % Inhibition, DPPH: 82.75%
[5]; 240 µM
  % Inhibition, DPPH: 85.65%
[5]
  IC50: 80 µM
[6]; 40 µM
  % Inhibition, superoxide: 29.64%
[6]; 80 µM
  % Inhibition, superoxide: 41.72%
[6]; 120 µM
  % Inhibition, superoxide: 55.63%
[6]; 160 µM
  % Inhibition, superoxide: 66.75%
[6]; 200 µM
  % Inhibition, superoxide: 72.55%
[6]; 240 µM
  % Inhibition, superoxide: 84.85%
[6]
  IC50: 120 µM

## C[C@@H]1[C@H](O)[C@@H](C)/C=C/C=C/C=C/C=C/C=C/C=C/C=C/[C@H](O[C@@H]2O[C@H](C)[C@@H](O)[C@H](N)[C@@H]2O)C[C@@H]2O[C@](O)(C[C@@H](O)C[C@@H](O)[C@H](O)CC[C@@H](O)C[C@@H](O)CC(=O)O[C@H]1C)C[C@H](O)[C@H]2C(=O)O [Amphotericin B, reference compound]
Mucor indicus
  Inhibition %: 65%
  zone of inhibition at 100 µM: 17 mm
Aspergillus niger
  Inhibition %: 60%
  zone of inhibition at 100 µM: 15 mm
Candida albicans
  Inhibition %: 65%
  zone of inhibition at 100 µM: 17 mm

## N.N.[Cl][Pt][Cl] [Cisplatin, cisplatin, reference compound]
[7]
  IC50: 22.9 ± 1.1 µM
[8]
  IC50: 20.2 ± 1 µM
[9]
  IC50: 26.9 ± 1.3 µM
[10]
  IC50: 31.9 ± 1.6 µM

## NCC[C@H](O)C(=O)N[C@@H]1C[C@H](N)[C@@H](O[C@H]2O[C@H](CN)[C@@H](O)[C@H](O)[C@H]2O)[C@H](O)[C@H]1O[C@H]1O[C@H](CO)[C@@H](O)[C@H](N)[C@H]1O [Amikacin, reference compound]
Pseudomonas aeruginosa
  Inhibition %: 70%
  zone of inhibition at 100 µM: 20 mm
[1]
  Inhibition %: 75%
  zone of inhibition at 100 µM: 24 mm
Escherichia coli
  Inhibition %: 73%
  zone of inhibition at 100 µM: 22 mm
Shigella flexneri
  Inhibition %: 70%
  zone of inhibition at 100 µM: 20 mm
Staphylococcus Aureus
  Inhibition %: 70%
  zone of inhibition at 100 µM: 20 mm
[2]
  zone of inhibition at 100 µM: 22 mm
  Inhibition %: 73%
Bacillus cereus
  zone of inhibition at 100 µM: 20 mm
  Inhibition %: 70%

## CC[n+]1c(-c2ccccc2)c2cc(N)ccc2c2ccc(N)cc21 [EB, ethidium bromide, reference compound]
CT-DNA; R = [Complex]/[DNA] = 0.2
  Relative Specific Viscosity (η/η0)^1/3: 1.01
CT-DNA; R = [Complex]/[DNA] = 0.4
  Relative Specific Viscosity (η/η0)^1/3: 1.35
CT-DNA; R = [Complex]/[DNA] = 0.6
  Relative Specific Viscosity (η/η0)^1/3: 1.63
CT-DNA; R = [Complex]/[DNA] = 0.8
  Relative Specific Viscosity (η/η0)^1/3: 1.82
CT-DNA; R = [Complex]/[DNA] = 1.0
  Relative Specific Viscosity (η/η0)^1/3: 1.99
CT-DNA
  Slope of (η/η0)^1/3 vs [Compound]/[DNA]: 1.2859
CT-DNA; listed as (EB)
  Slope of (η/η0)^1/3 vs [Compound]/[DNA]: 1.286
